Columns and labels:
Assay in all cases: Competitive isoTOP-ABPP in situ (fragment-treated cells)
Format in all cases: cell-based
[1] = biological target: cysteines in MDA-MB-231 and Ramos cells (Homo sapiens, UniProt P15121)
[2] = biological target: T1, cysteines in MDA-MB-231 and Ramos cells (Homo sapiens, UniProt P31943)
T1 sequence (P31943 1-449): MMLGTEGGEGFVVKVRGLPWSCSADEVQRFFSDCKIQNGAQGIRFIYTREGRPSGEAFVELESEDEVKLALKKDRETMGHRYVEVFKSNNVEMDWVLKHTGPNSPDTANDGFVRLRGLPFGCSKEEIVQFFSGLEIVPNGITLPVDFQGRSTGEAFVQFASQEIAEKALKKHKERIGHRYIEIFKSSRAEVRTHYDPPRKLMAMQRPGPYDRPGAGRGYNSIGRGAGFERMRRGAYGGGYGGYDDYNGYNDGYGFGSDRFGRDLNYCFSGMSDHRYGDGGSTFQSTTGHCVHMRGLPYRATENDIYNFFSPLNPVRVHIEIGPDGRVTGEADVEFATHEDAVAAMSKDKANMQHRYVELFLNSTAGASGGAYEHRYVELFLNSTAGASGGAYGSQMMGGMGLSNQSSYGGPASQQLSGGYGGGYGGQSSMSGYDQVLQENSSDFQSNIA

[3] = biological target: cysteines in MDA-MB-231 and Ramos cells (Homo sapiens, UniProt P62888)
[4] = biological target: T2, cysteines in MDA-MB-231 and Ramos cells (Homo sapiens, UniProt A6NDU8)
T2 sequence (A6NDU8 1-294): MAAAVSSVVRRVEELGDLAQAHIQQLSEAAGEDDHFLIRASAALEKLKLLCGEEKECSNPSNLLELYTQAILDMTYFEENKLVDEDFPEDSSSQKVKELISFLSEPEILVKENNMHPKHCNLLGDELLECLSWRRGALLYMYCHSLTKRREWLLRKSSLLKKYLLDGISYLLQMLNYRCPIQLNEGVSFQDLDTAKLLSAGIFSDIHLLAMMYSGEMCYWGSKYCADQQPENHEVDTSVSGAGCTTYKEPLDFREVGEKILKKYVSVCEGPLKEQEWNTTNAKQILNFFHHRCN

[5] = biological target: T3, cysteines in MDA-MB-231 and Ramos cells (Homo sapiens, UniProt P78417); settings: 200 μM, insitu
T3 sequence (P78417 1-241): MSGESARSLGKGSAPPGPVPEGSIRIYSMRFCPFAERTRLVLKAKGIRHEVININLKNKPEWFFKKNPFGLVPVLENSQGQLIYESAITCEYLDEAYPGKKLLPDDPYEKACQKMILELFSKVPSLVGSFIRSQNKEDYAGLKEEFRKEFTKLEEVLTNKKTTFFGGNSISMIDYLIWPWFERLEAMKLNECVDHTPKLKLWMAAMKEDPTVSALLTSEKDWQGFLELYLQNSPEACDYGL

[6] = biological target: cysteines in MDA-MB-231 and Ramos cells (Homo sapiens, UniProt Q9BXW7)
Sequence of cysteines in MDA-MB-231 and Ramos cells (Homo sapiens, UniProt Q9BXW7) (Q9BXW7 24-423): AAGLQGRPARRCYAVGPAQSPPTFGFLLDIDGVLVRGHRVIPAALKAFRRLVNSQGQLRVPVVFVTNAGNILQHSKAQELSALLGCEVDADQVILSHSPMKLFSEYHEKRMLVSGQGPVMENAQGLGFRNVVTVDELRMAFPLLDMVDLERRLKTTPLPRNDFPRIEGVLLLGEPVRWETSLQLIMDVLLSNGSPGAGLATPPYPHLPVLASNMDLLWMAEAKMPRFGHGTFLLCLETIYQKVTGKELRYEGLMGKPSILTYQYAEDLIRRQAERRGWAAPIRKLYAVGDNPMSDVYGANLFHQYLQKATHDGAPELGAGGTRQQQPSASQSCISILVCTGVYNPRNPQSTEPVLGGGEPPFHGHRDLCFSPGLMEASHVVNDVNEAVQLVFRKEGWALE

[7] = biological target: cysteines in MDA-MB-231 and Ramos cells (Homo sapiens, UniProt Q02252)
Sequence of cysteines in MDA-MB-231 and Ramos cells (Homo sapiens, UniProt Q02252) (Q02252 34-535): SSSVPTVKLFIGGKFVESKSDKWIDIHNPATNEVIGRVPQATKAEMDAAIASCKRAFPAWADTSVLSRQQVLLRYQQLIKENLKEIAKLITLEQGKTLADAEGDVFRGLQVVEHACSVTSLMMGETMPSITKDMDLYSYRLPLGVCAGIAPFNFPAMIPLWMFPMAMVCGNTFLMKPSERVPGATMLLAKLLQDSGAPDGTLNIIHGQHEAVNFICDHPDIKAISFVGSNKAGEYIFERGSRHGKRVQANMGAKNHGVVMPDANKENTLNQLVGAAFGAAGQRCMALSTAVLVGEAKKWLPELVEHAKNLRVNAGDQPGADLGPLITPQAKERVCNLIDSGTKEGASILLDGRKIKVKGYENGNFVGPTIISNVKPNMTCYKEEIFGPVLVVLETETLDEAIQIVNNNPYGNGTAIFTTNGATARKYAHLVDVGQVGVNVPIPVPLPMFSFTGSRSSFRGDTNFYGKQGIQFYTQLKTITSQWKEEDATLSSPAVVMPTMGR

[8] = biological target: T4, cysteines in MDA-MB-231 and Ramos cells (Homo sapiens, UniProt P23919)
T4 sequence (P23919 1-212): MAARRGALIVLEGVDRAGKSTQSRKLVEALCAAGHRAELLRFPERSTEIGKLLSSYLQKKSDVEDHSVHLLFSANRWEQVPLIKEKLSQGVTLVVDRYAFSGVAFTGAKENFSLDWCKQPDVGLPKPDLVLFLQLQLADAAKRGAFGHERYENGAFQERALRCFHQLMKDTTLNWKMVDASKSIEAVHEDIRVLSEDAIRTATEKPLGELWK

[9] = biological target: T5, cysteines in MDA-MB-231 and Ramos cells (Homo sapiens, UniProt O95336)
T5 sequence (O95336 1-258): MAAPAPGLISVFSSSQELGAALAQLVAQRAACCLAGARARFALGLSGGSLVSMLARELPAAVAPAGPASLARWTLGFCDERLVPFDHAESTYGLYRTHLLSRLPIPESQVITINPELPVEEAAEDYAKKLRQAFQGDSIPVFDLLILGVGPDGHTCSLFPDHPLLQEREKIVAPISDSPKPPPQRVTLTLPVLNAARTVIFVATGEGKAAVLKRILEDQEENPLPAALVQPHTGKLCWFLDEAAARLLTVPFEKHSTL

[10] = biological target: T6, cysteines in MDA-MB-231 and Ramos cells (Homo sapiens, UniProt P22307)
T6 sequence (P22307 1-547): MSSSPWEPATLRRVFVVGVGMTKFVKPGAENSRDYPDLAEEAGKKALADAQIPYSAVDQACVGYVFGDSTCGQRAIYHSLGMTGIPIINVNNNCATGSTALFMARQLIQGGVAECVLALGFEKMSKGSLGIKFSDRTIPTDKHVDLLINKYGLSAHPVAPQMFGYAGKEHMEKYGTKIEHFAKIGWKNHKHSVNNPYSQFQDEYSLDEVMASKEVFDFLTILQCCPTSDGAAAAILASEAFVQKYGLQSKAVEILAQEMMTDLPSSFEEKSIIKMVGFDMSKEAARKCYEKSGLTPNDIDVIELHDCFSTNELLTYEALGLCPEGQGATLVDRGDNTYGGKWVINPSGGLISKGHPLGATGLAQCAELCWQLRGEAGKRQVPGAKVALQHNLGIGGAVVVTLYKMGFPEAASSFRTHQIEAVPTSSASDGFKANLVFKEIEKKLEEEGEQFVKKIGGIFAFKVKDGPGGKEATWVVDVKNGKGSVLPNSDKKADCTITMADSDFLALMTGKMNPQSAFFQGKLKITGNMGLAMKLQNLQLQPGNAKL

| SMILES | isoTOP-ABPP ratio P15121_C299 ([1]; 200 μM, insitu, ramos) | isoTOP-ABPP ratio P31943_C267 ([2]; 200 μM, insitu, ramos) | isoTOP-ABPP ratio P62888_C92 ([3]; 200 μM, insitu, ramos) | isoTOP-ABPP ratio P78417_C32 ([5]; ramos) | isoTOP-ABPP ratio O95336_C32 ([9]; 200 μM, insitu, ramos) | isoTOP-ABPP ratio P15121_C299 ([1]; 200 μM, insitu, 231) | isoTOP-ABPP ratio P31943_C267 ([2]; 200 μM, insitu, 231) | isoTOP-ABPP ratio P62888_C92 ([3]; 200 μM, insitu, 231) | isoTOP-ABPP ratio A6NDU8_C179 ([4]; 200 μM, insitu, 231) | isoTOP-ABPP ratio P78417_C32 [5]; 231 | isoTOP-ABPP ratio Q9BXW7_C392 ([6]; 200 μM, insitu, 231) | isoTOP-ABPP ratio Q02252_C317 ([7]; 200 μM, insitu, 231) | isoTOP-ABPP ratio P23919_C163 ([8]; 200 μM, insitu, 231) | isoTOP-ABPP ratio O95336_C32 ([9]; 200 μM, insitu, 231) | isoTOP-ABPP ratio P22307_C71 ([10]; 200 μM, insitu, 231) | also measured |
| --- | --- | --- | --- | --- | --- | --- | --- | --- | --- | --- | --- | --- | --- | --- | --- | --- |
| O=C(CCl)N1CCN(CC(=O)N2CCOCC2)CC1 [compound 29] | 1.1 | 1.4 | 2.0 | 20.0 | 3.0 | – | – | – | – | – | – | – | – | – | – | isoTOP-ABPP ratio A6NDU8_C179 ([4]; 200 μM, insitu, ramos): 1.0; isoTOP-ABPP ratio Q9BXW7_C392 ([6]; 200 μM, insitu, ramos): 1.5; isoTOP-ABPP ratio Q02252_C317 ([7]; 200 μM, insitu, ramos): 1.2; isoTOP-ABPP ratio P23919_C117 ([8]; 200 μM, insitu, ramos): 1.6 |
| CC(C)CCOCCNC(=O)CCl [compound 27] | – | – | – | – | – | 0.5 | 1.1 | 0.6 | 0.7 | 20.0 | 1.3 | 2.0 | 0.2 | 0.5 | 20.0 | – |
| Cn1cc(S(=O)(=O)N2CCOCC2)cc1C(=O)NC(=O)CCl [compound 11] | – | – | – | – | – | – | – | – | – | – | – | – | – | – | – | isoTOP-ABPP ratio P15121_C299 ([1]; 100 μM in situ 231): 0.7; isoTOP-ABPP ratio P31943_C267 ([2]; 100 μM in situ 231): 0.9; isoTOP-ABPP ratio P62888_C92 ([3]; 100 μM in situ 231): 0.8; isoTOP-ABPP ratio A6NDU8_C179 ([4]; 100 μM in situ 231): 0.7; isoTOP-ABPP ratio Q9BXW7_C392 ([6]; 100 μM in situ 231): 1.1; isoTOP-ABPP ratio Q02252_C317 ([7]; 100 μM in situ 231): 0.9; isoTOP-ABPP ratio, cysteine P23919_C163 ([8]; 100 μM in situ 231): 0.2; isoTOP-ABPP ratio O95336_C32 ([9]; 100 μM in situ 231): 0.9; isoTOP-ABPP ratio P22307_C71 ([10]; 100 μM in situ 231): 2.0; isoTOP-ABPP ratio, cysteine P22307_C94 ([10]; 100 μM in situ 231): 3.3; isoTOP-ABPP ratio, cysteine P22307_C307 ([10]; 100 μM in situ 231): 2.9 |
| O=C(CCl)NCCc1c[nH]c2ccccc12 [compound 13] | 0.8 | 1.2 | 2.0 | 20.0 | 2.2 | – | 1.1 | 0.8 | 0.8 | 20.0 | 2.0 | 1.3 | – | 1.6 | 4.9 | isoTOP-ABPP ratio, cysteine P23919_C117 ([8]; 200 μM, insitu, 231): 0.6 |
| Cc1ccc(C=C(C#N)C(=O)NCCN2CCOCC2)cc1 [compound 41] | – | – | – | – | – | 0.9 | 1.0 | 0.8 | 0.6 | 0.3 | 1.0 | 0.8 | 0.2 | 0.6 | 1.2 | isoTOP-ABPP ratio P22307_C307 ([10]; 200 μM, insitu, 231): 1.1 |
| C=CC(=O)Nc1cc(F)c(N2CCN(C(=O)OC(C)(C)C)CC2)c(F)c1 [compound 38] | – | – | – | – | – | 1.0 | 1.2 | 3.2 | 1.4 | 1.0 | 0.8 | 2.4 | 5.7 | 2.8 | – | isoTOP-ABPP ratio P23919_C117 ([8]; 200 μM, insitu, 231): 4.4 |
